Measurements reported in patent US6274715A, “Tricyclic erythromycin derivatives” (priority 1997, dated 2001).
≈ marks a conversion by molar mass, not a printed value.

Tests used:
Format in all cases: cell-based
STR[…] 508 = assay: In vitro antibacterial activity, MIC, BHI agar dilution; conditions: S. agalactiae CMX 508, unit assumed
Outline: (§1)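 Twelve successive aqueous dilutions of compound in Brain Heart Infusion agar were inoculated with 1:100 culture dilutions (1:10 for slow growers such as Micrococcus, Streptococcus) by Steers replicator and incubated at 35-37° C for 20 to 24 hours. MIC was the lowest concentration giving no growth, slight haze or sparse colonies versus drug-free control.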

EN[…] ATCC 8043 = assay: as above; conditions: E. faecium ATCC 8043, unit assumed
Outline: as §1

M[…] ATCC 4698 = assay: as above; conditions: M. luteus ATCC 4698, unit assumed
Outline: as §1

M[…] ATCC 9341 = assay: as above; conditions: M. luteus ATCC 9341, unit assumed
Outline: as §1

[1] = test system: PSEUDOMONAS AERUGINOSA BMH10; assay: as above; conditions: P. aeruginosa BMH10, unit assumed
[2] = test system: PSEUDOMONAS AERUGINOSA 5007; assay: as above; conditions: P. aeruginosa 5007, unit assumed
[3] = test system: PROVIDENCIA STUARTII CMX 640; conditions: P. stuartii CMX 640; BHI agar; unit assumed
ESCHERICHIA COLI H560 = assay: In vitro antibacterial activity, MIC, BHI agar dilution; conditions: E. coli H560, unit assumed
[4] = test system: STREPTOCOCCUS PYOGENES 930; assay: as above; conditions: S. pyogenes 930, unit assumed
[5] = test system: STREPTOCOCCUS BOVIS A-5169; assay: as above; conditions: S. bovis A-5169, unit assumed
[6] = test system: STREPTOCOCCUS PYOGENES PIU 2548; assay: as above; conditions: S. pyogenes PIU 2548, unit assumed
[7] = test system: KLEBSIELLA PNEUMONIAE ATCC 8045; assay: as above; conditions: K. pneumoniae ATCC 8045, unit assumed
[8] = test system: PSEUDOMONAS AERUGINOSA K799/WT; assay: as above; conditions: P. aeruginosa K799/WT, unit assumed
[9] = test system: STAPHYLOCOCCUS AUREUS A5177; assay: as above; conditions: S. aureus A5177, unit assumed
PSEUDOMONAS CEPACIA 296I = assay: as above; conditions: P. cepacia 296I, unit assumed
ESCHERICHIA COLI JUHL = conditions: E. coli JUHL; BHI agar; unit assumed
[10] = test system: STAPHYLOCOCCUS AUREUS A-5278; assay: In vitro antibacterial activity, MIC, BHI agar dilution; conditions: S. aureus A-5278, unit assumed
ESCHERICHIA COLI DC-2 = assay: as above; conditions: E. coli DC-2, unit assumed
[11] = test system: PSEUDOMONAS AERUGINOSA DPHD-5263; assay: as above; conditions: P. aeruginosa DPHD-5263, unit assumed
CANDIDA ALBICANS CCH 442 = assay: as above; conditions: C. albicans CCH 442, unit assumed
[12] = test system: STAPHYLOCOCCUS AUREUS ATCC 6538P; assay: as above; conditions: S. aureus ATCC 6538P, 35-37° C., 20 to 24 hours, unit assumed
[13] = test system: MYCOBACTERIUM SMEGMATIS ATCC 114; assay: as above; conditions: M. smegmatis ATCC 114, unit assumed
[14] = test system: ENTEROBACTER AEROGENES ATCC 13048; assay: as above; conditions: E. aerogenes ATCC 13048, unit assumed
[15] = test system: STREPTOCOCCUS PYOGENES EES61; assay: as above; conditions: S. pyogenes EES61, unit assumed
[16] = test system: STAPHYLOCOCCUS AUREUS 1775; assay: as above; conditions: S. aureus 1775, unit assumed
[17] = test system: PSEUDOMONAS AERUGINOSA K799/61; assay: as above; conditions: P. aeruginosa K799/61, unit assumed
ESCHERICHIA COLI SS = assay: as above; conditions: E. coli SS, unit assumed
[18] = test system: STAPHYLOCOCCUS AUREUS NCTC10649M; assay: as above; conditions: S. aureus NCTC10649M, unit assumed
[19] = test system: STAPHYLOCOCCUS AUREUS CMX 642A; assay: as above; conditions: S. aureus CMX 642A, unit assumed
ESCHERICHIA COLI KNK 437 = conditions: E. coli KNK 437; BHI agar; unit assumed
[20] = test system: STAPHYLOCOCCUS AUREUS CMX 553; assay: In vitro antibacterial activity, MIC, BHI agar dilution; conditions: S. aureus CMX 553, unit assumed
[21] = test system: STAPHYLOCOCCUS EPIDERMIDIS 3519; conditions: S. epidermidis 3519; BHI agar; unit assumed
[22] = test system: PSEUDOMONAS AERUGINOSA DPHD-2862; assay: In vitro antibacterial activity, MIC, BHI agar dilution; conditions: P. aeruginosa DPHD-2862, unit assumed

Row | SMILES | MIC (STR[…] 508) | MIC (EN[…] ATCC 8043) | MIC (M[…] ATCC 4698) | MIC (M[…] ATCC 9341) | MIC [1] | MIC [2] | MIC [3] | MIC (ESCHERICHIA COLI H560) | MIC [4] | MIC [5] | MIC [6] | MIC [7] | MIC [8] | MIC [9] | MIC (PSEUDOMONAS CEPACIA 296I) | MIC (ESCHERICHIA COLI JUHL) | MIC [10] | MIC (ESCHERICHIA COLI DC-2) | MIC [11] | MIC (CANDIDA ALBICANS CCH 442) | also measured
1 | CC[C@H]1OC(=O)[C@H](C)C(=O)[C@H](C)[C@@H](O[C@@H]2O[C@H](C)C[C@H](N(C)C)[C@H]2O)[C@](C)(OC)C[C@@H](C)C2=NC3CN(C)CC3N3C(=O)O[C@@]1(C)[C@H]3[C@H]2C (stereo partly drawn) [Example 114] | 0.1 µg/mL (≈ 0.144 µM) | 0.2 µg/mL (≈ 0.289 µM) | 1.56 µg/mL (≈ 2.25 µM) | 0.1 µg/mL (≈ 0.144 µM) | > 100 µg/mL | > 100 µg/mL | > 100 µg/mL | 50 µg/mL (≈ 72.2 µM) | > 100 µg/mL | 0.02 µg/mL (≈ 0.0289 µM) | 1.56 µg/mL (≈ 2.25 µM) | > 100 µg/mL | > 100 µg/mL | 0.78 µg/mL (≈ 1.13 µM) | > 100 µg/mL | 100 µg/mL (≈ 144 µM) | > 100 µg/mL | 100 µg/mL (≈ 144 µM) | > 100 µg/mL | > 100 µg/mL | MIC [12]: 1.56 µg/mL (≈ 2.25 µM); MIC [13]: 6.2 µg/mL (≈ 8.95 µM); MIC [14]: 100 µg/mL (≈ 144 µM); MIC [15]: 0.05 µg/mL (≈ 0.0722 µM); MIC [16]: > 100 µg/mL; MIC [17]: 6.2 µg/mL (≈ 8.95 µM); MIC (ESCHERICHIA COLI SS): 0.78 µg/mL (≈ 1.13 µM); MIC [18]: 1.56 µg/mL (≈ 2.25 µM); MIC [19]: 1.56 µg/mL (≈ 2.25 µM); MIC (ESCHERICHIA COLI KNK 437): 100 µg/mL (≈ 144 µM); MIC [20]: 1.56 µg/mL (≈ 2.25 µM); MIC [21]: 1.56 µg/mL (≈ 2.25 µM); MIC [22]: > 100 µg/mL
2 | CC[C@H]1OC(=O)[C@H](C)C(=O)[C@H](C)[C@@H](O[C@@H]2O[C@H](C)C[C@H](N(C)C)[C@H]2O)[C@](C)(OC)C[C@@H](C)C2=NC3CN(CCc4ccc([N+](=O)[O-])cc4)CC3N3C(=O)O[C@@]1(C)[C@H]3[C@H]2C (stereo partly drawn) [Example 118] | 0.02 µg/mL (≈ 0.0242 µM) | 0.2 µg/mL (≈ 0.242 µM) | 0.2 µg/mL (≈ 0.242 µM) | 0.05 µg/mL (≈ 0.0604 µM) | > 100 µg/mL | > 100 µg/mL | > 100 µg/mL | 100 µg/mL (≈ 121 µM) | > 100 µg/mL | ≤ 0.005 µg/mL | 0.78 µg/mL (≈ 0.942 µM) | > 100 µg/mL | > 100 µg/mL | 0.2 µg/mL (≈ 0.242 µM) | > 100 µg/mL | 100 µg/mL (≈ 121 µM) | > 100 µg/mL | > 100 µg/mL | > 100 µg/mL | > 100 µg/mL | MIC [12]: 0.39 µg/mL (≈ 0.471 µM); MIC [13]: 0.78 µg/mL (≈ 0.942 µM); MIC [14]: > 100 µg/mL; MIC [15]: 0.05 µg/mL (≈ 0.0604 µM); MIC [16]: > 100 µg/mL; MIC [17]: 0.78 µg/mL (≈ 0.942 µM); MIC (ESCHERICHIA COLI SS): 0.78 µg/mL (≈ 0.942 µM); MIC [18]: 0.39 µg/mL (≈ 0.471 µM); MIC [19]: 0.39 µg/mL (≈ 0.471 µM); MIC (ESCHERICHIA COLI KNK 437): > 100 µg/mL; MIC [20]: 0.39 µg/mL (≈ 0.471 µM); MIC [21]: 0.39 µg/mL (≈ 0.471 µM); MIC [22]: > 100 µg/mL
